Measured values taken from PubChem BioAssay (NCI).
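Here, GI50 denotes the concentration required for 50% inhibition of growth. TGI denotes the concentration required for complete inhibition of growth.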

Assays:
Assay in all cases: growth of human tumour cells (NCI), 384-well format
BT-549 breast = tested on: BT-549 breast
COLO 205 colon = tested on: COLO 205 colon
HT29 colon = tested on: HT29 colon
MCF7 breast = tested on: MCF7 breast
MDA-MB-435 melanoma = tested on: MDA-MB-435 melanoma
MDA-MB-468 breast = tested on: MDA-MB-468 breast
NCI-H522 lung = tested on: NCI-H522 lung
OVCAR-4 ovarian = tested on: OVCAR-4 ovarian
SF-268 CNS = tested on: SF-268 CNS
SF-295 CNS = tested on: SF-295 CNS
SK-MEL-28 melanoma = tested on: SK-MEL-28 melanoma
SK-MEL-5 melanoma = tested on: SK-MEL-5 melanoma
SNB-19 CNS = tested on: SNB-19 CNS

O=C(NCc1ccncc1)C12CC3CC(C1)CC(c1ccc(Cl)cc1)(C3)C2
GI50 (BT-549 breast): 8.85 µM
TGI (BT-549 breast): 21.5 µM
GI50 (COLO 205 colon): 13.2 µM
TGI (COLO 205 colon): 26.1 µM
GI50 (HT29 colon): 12.1 µM
TGI (HT29 colon): 24.8 µM
GI50 (MCF7 breast): 10.4 µM
TGI (MCF7 breast): 23.5 µM
GI50 (MDA-MB-435 melanoma): 16.5 µM
TGI (MDA-MB-435 melanoma): 30.2 µM
GI50 (MDA-MB-468 breast): 5.39 µM
TGI (MDA-MB-468 breast): 15.1 µM
GI50 (NCI-H522 lung): 11.5 µM
TGI (NCI-H522 lung): 23.9 µM
GI50 (OVCAR-4 ovarian): 13.6 µM
TGI (OVCAR-4 ovarian): 26.5 µM
GI50 (SF-268 CNS): 14.2 µM
TGI (SF-268 CNS): 27.3 µM
GI50 (SF-295 CNS): 14.1 µM
TGI (SF-295 CNS): 27.2 µM
GI50 (SK-MEL-28 melanoma): 17.3 µM
TGI (SK-MEL-28 melanoma): 31.1 µM
GI50 (SK-MEL-5 melanoma): 8.68 µM
TGI (SK-MEL-5 melanoma): 21.2 µM
GI50 (SNB-19 CNS): 16.3 µM
TGI (SNB-19 CNS): 30 µM

Cc1ncsc1-c1ccc(CNC(=O)[C@@H]2C[C@@H](O)CN2C(=O)[C@@H](NC(=O)C2(C#N)CC2)C(C)(C)C)cc1
GI50 (BT-549 breast): > 100 µM
TGI (BT-549 breast): > 100 µM
GI50 (COLO 205 colon): > 100 µM
TGI (COLO 205 colon): > 100 µM
GI50 (HT29 colon): > 100 µM
TGI (HT29 colon): > 100 µM
GI50 (MCF7 breast): > 100 µM
TGI (MCF7 breast): > 100 µM
GI50 (MDA-MB-435 melanoma): > 100 µM
TGI (MDA-MB-435 melanoma): > 100 µM
GI50 (MDA-MB-468 breast): > 100 µM
TGI (MDA-MB-468 breast): > 100 µM
GI50 (NCI-H522 lung): > 100 µM
TGI (NCI-H522 lung): > 100 µM
GI50 (OVCAR-4 ovarian): > 100 µM
TGI (OVCAR-4 ovarian): > 100 µM
GI50 (SF-268 CNS): 99.7 µM
TGI (SF-268 CNS): > 100 µM
GI50 (SF-295 CNS): > 100 µM
TGI (SF-295 CNS): > 100 µM
GI50 (SK-MEL-28 melanoma): > 100 µM
TGI (SK-MEL-28 melanoma): > 100 µM
GI50 (SK-MEL-5 melanoma): > 100 µM
TGI (SK-MEL-5 melanoma): > 100 µM
GI50 (SNB-19 CNS): > 100 µM
TGI (SNB-19 CNS): > 100 µM
